Patent US10597388B2, “Pyridazinone herbicides” (FMC CORPORATION, priority 2014, dated 2020)
Where two headings read alike, the source gives them in different places.

Columns and labels:
Assay type in all cases: in vivo
[1] = tested on: crabgrass, large (large crabgrass, Digitaria sanguinalis); assay: Test A greenhouse herbicide test, pre- and postemergence; conditions: Digitaria sanguinalis, 240 h; for pest or weed control at 125 g/ha: 125 g ai/ha; for pest or weed control at 500 g/ha: 500 g ai/ha; for pest or weed control at 500 g/ha / pest or weed control at 1000 g/ha: 0 to 100 scale; for pest or weed control at 1000 g/ha: 1000 g ai/ha
Summary of the method: (§1)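 Visual injury ratings, 0 (no effect) to 100 (complete control), versus untreated plants after roughly 10 d in a greenhouse. Compounds, formulated in a surfactant-containing non-phytotoxic solvent, were sprayed on loam–sand soil after sowing (pre) or on one- to two-leaf plants 2–10 cm tall (post).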

[2] = tested on: momingglory (Ipomoea spp.); assay: as above; conditions: Ipomoea, 240 h; for pest or weed control at 125 g/ha: 125 g ai/ha; for pest or weed control at 500 g/ha: 500 g ai/ha; for pest or weed control at 500 g/ha / pest or weed control at 1000 g/ha: 0 to 100 scale; for pest or weed control at 1000 g/ha: 1000 g ai/ha
Summary of the method: as §1

[3] = tested on: velvetleaf (Abutilon theophrasti); assay: as above; conditions: Abutilon theophrasti, 240 h; for pest or weed control at 125 g/ha: 125 g ai/ha; for pest or weed control at 500 g/ha: 500 g ai/ha; for pest or weed control at 500 g/ha / pest or weed control at 1000 g/ha: 0 to 100 scale; for pest or weed control at 1000 g/ha: 1000 g ai/ha
Summary of the method: as §1

[4] = tested on: wild poinsettia (Euphorbia heterophylla); assay: Test E greenhouse herbicide test, pre- and postemergence
Summary of the method: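 Greenhouse pots; preemergence on silt loam, postemergence on plants 1- to 4-leaf (2 to 18 cm) grown in peat, vermiculite and nutrient medium. Test chemicals formulated in non-phytotoxic solvent with surfactant. Ratings taken after 14 to 21 d.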

[5] = tested on: waterhemp_RES1 (ALS & Triazine resistant common waterhemp, Amaranthus rudis); assay: Test E greenhouse herbicide test, postemergence
Summary of the method: (§2)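 Postemergence spray on potted plants, 1–4 leaves, 2–18 cm; greenhouse 14–21 d; visual rating vs controls, 0 (no effect) to 100 (complete control).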

[6] = tested on: waterhemp_RES2 (ALS & HPPD resistant common waterhemp, Amaranthus rudis); assay: Test E greenhouse herbicide test, postemergence
Summary of the method: as §2

[7] = post-emergence, Postemergence, visual rating after approx. 10 d, 0 to 100 scale (0 no effect, 100 complete control), read-out: Plant response rating, Crabgrass, Large
[8] = post-emergence, Postemergence, 0 is no effect, 100 is complete control, read-out: Crabgrass, Large plant response rating
[9] = pre-emergence, Preemergence, 0 to 100 scale where 0 is no effect and 100 is complete control, read-out: Crabgrass, Large plant response rating
[10] = pre-emergence, Preemergence, 0 no effect, 100 complete control, read-out: Plant response rating, Crabgrass, Large
[11] = post-emergence, Postemergence, visual rating after approx. 10 d, 0 to 100 scale (0 no effect, 100 complete control), read-out: Plant response rating, Morningglory
[12] = post-emergence, Postemergence, 0 is no effect, 100 is complete control, read-out: Morningglory plant response rating
[13] = pre-emergence, Preemergence, 0 to 100 scale where 0 is no effect and 100 is complete control, read-out: Morningglory plant response rating
[14] = pre-emergence, Preemergence, 0 no effect, 100 complete control, read-out: Plant response rating, Morningglory
[15] = post-emergence, Postemergence, visual rating after approx. 10 d, 0 to 100 scale (0 no effect, 100 complete control), read-out: Plant response rating, Velvetleaf
[16] = post-emergence, Postemergence, 0 is no effect, 100 is complete control, read-out: Velvetleaf plant response rating
[17] = pre-emergence, Preemergence, 0 to 100 scale where 0 is no effect and 100 is complete control, read-out: Velvetleaf plant response rating
[18] = pre-emergence, Preemergence, 0 no effect, 100 complete control, read-out: Plant response rating, Velvetleaf
[19] = 16 g ai/ha, visual, scale 0 no effect to 100 complete control
[20] = 31 g ai/ha, visual, scale 0 no effect to 100 complete control
[21] = 62 g ai/ha, scale 0 to 100 (0 no effect, 100 complete control)
[22] = 125 g ai/ha, scale 0 to 100 (0 no effect, 100 complete control)
[23] = 250 g ai/ha, scale 0 to 100 (0 no effect, 100 complete control)

With Cc1cc(C)c2sc(C)c(-c3c(O)c(C)nn(C)c3=O)c2c1 [Compound 2, 5-hydroxy-2,6-dimethyl-4-(2,5,7-trimethylbenzo[b]thien-3-yl)-3(2H)-pyridazinone] the pest or weed control at 125 g/ha [1, 7] was 50%, the pest or weed control at 500 g/ha [1, 8] was 70% and the pest or weed control at 125 g/ha [1, 9] was 90%. The pest or weed control at 500 g/ha [1, 10] was 100%, the pest or weed control at 125 g/ha [2, 11] was 100% and the pest or weed control at 500 g/ha [2, 12] was 100%. For the same molecule, the pest or weed control at 125 g/ha [2, 13] was 80%, the pest or weed control at 500 g/ha [2, 14] was 100% and the pest or weed control at 125 g/ha [3, 15] was 100%. It also gave a pest or weed control at 500 g/ha [3, 16] of 100%, a pest or weed control at 125 g/ha [3, 17] of 80% and a pest or weed control at 500 g/ha [3, 18] of 90%. The “Plant response rating, Poinsettia, Wild” value ([4]; 62 g ai/ha, Postemergence, scale 0 to 100 (0 no effect, 100 complete control)) was 0, the “Plant response rating, Poinsettia, Wild” value ([4]; 62 g ai/ha, Preemergence, scale 0 to 100 (0 no effect, 100 complete control)) was 30 and the “Plant response rating, Poinsettia, Wild” value ([4]; 125 g ai/ha, Postemergence, scale 0 to 100 (0 no effect, 100 complete control)) was 15. The “Plant response rating, Poinsettia, Wild” value ([4]; 125 g ai/ha, Preemergence, scale 0 to 100 (0 no effect, 100 complete control)) was 30, the “Plant response rating, Poinsettia, Wild” value ([4]; 250 g ai/ha, Postemergence, scale 0 to 100 (0 no effect, 100 complete control)) was 15 and the “Plant response rating, Poinsettia, Wild” value ([4]; Postemergence, 16 g ai/ha, visual, scale 0 no effect to 100 complete control) was 0. The “Plant response rating, Poinsettia, Wild” value ([4]; Postemergence, 31 g ai/ha, visual, scale 0 no effect to 100 complete control) was 0, the “Plant response rating, Poinsettia, Wild” value ([4]; Preemergence, 16 g ai/ha, scale 0 to 100, 0 no effect, 100 complete control) was 0 and the “Plant response rating, Poinsettia, Wild” value ([4]; Preemergence, 31 g ai/ha, scale 0 to 100, 0 no effect, 100 complete control) was 25. For the same molecule, the “Plant response rating, Poinsettia, Wild” value ([4]; Preemergence, 250 g ai/ha, visual, scale 0 no effect to 100 complete control) was 50, the “Plant response rating, Waterhemp_RES1” value [5, 19] was 65 and the “Plant response rating, Waterhemp_RES1” value [5, 20] was 70. The “Plant response rating, Waterhemp_RES1” value [5, 21] was 70, the “Plant response rating, Waterhemp_RES1” value [5, 22] was 70 and the “Plant response rating, Waterhemp_RES1” value [5, 23] was 100. The “Plant response rating, Waterhemp_RES2” value [6, 19] was 0, the “Plant response rating, Waterhemp_RES2” value [6, 20] was 0 and the “Plant response rating, Waterhemp_RES2” value [6, 21] was 5. For the same molecule, the “Plant response rating, Waterhemp_RES2” value [6, 22] was 5 and the “Plant response rating, Waterhemp_RES2” value [6, 23] was 60.
With Cc1nn(C)c(=O)c(-c2c(C)oc3cccc(C)c23)c1O [Compound 8, 4-(2,4-dimethyl-3-benzofuranyl)-5-hydroxy-2,6-dimethyl-3(2H)-pyridazinone] the pest or weed control at 125 g/ha [1, 7] was 0%, the pest or weed control at 500 g/ha [1, 8] was 30% and the pest or weed control at 125 g/ha [1, 9] was 10%. The pest or weed control at 500 g/ha [1, 10] was 60%, the pest or weed control at 125 g/ha [2, 11] was 0% and the pest or weed control at 500 g/ha [2, 12] was 10%. For the same molecule, the pest or weed control at 125 g/ha [2, 13] was 0%, the pest or weed control at 500 g/ha [2, 14] was 0% and the pest or weed control at 125 g/ha [3, 15] was 60%. The pest or weed control at 500 g/ha [3, 16] was 60%, the pest or weed control at 125 g/ha [3, 17] was 0% and the pest or weed control at 500 g/ha [3, 18] was 30%.
Work on CCc1oc2ccc(C)cc2c1-c1c(O)c(C)nn(C)c1=O [Compound 10, 4-(2-ethyl-5-methyl-3-benzofuranyl)-5-hydroxy-2,6-dimethyl-3(2H)-pyridazinone] yielded a pest or weed control at 1000 g/ha [1, 8] of 70%, a pest or weed control at 1000 g/ha [1, 10] of 90% and a pest or weed control at 1000 g/ha [2, 12] of 100%. The pest or weed control at 1000 g/ha [2, 14] was 90%, the pest or weed control at 1000 g/ha [3, 16] was 100% and the pest or weed control at 1000 g/ha [3, 18] was 90%.
Cc1nn(C)c(=O)c(-c2cccc3ccccc23)c1O [Compound 11, 5-hydroxy-2,6-dimethyl-4-(1-naphthalenyl)-3(2H)-pyridazinone] gave a pest or weed control at 1000 g/ha [1, 8] of 70%, a pest or weed control at 1000 g/ha [1, 10] of 80% and a pest or weed control at 1000 g/ha [2, 12] of 90%. For the same molecule, the pest or weed control at 1000 g/ha [2, 14] was 90%, the pest or weed control at 1000 g/ha [3, 16] was 100% and the pest or weed control at 1000 g/ha [3, 18] was 80%.
